# In patent US5491152A, “Derivatives of cyclic ethers and sulfides for the treatment of atherosclerosis” (The Du Pont Merck Pharmaceutical Company, priority 1994, dated 1996):
# Target: T1, Acyl-CoA: Cholesterol Acyltransferase (ACAT) (Rattus norvegicus, UniProt Q7TQM4)
# T1 construct: Microsomes were obtained by differential centrifugation; from tissue; host or cells: liver microsomes of male Sprague Dawley rats
# T1 sequence (Q7TQM4 1-524): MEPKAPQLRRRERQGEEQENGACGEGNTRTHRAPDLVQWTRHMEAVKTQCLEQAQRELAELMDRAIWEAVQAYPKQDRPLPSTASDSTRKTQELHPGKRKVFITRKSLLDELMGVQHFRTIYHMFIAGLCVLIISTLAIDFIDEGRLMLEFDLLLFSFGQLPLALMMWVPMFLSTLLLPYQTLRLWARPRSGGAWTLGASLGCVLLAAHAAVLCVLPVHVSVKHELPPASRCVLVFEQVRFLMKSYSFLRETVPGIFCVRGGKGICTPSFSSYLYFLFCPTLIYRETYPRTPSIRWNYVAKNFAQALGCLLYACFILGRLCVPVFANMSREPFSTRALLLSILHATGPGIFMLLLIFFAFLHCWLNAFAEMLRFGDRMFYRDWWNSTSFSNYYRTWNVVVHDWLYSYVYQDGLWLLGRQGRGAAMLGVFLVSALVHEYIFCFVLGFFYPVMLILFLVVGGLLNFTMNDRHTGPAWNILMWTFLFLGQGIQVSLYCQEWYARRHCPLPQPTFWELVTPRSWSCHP
# Assay: Inhibition of Acyl-CoA: Cholesterol Acyltransferase (ACAT) in hepatic microsomes (In Vitro Assay)
# Assay type: biochemical, rat (male Sprague Dawley)
# Conditions: 75 μM 14C-oleoyl-CoA, pH 7.4, 37° C., 15 min preincubation, 10 min
# Procedure: A. Assay of the Inhibition of Acyl-CoA: Cholesterol Acyltransferase (ACAT) in Hepatic Microsomes (In Vitro Assay)
# The ability of the compounds to inhibit ACAT, the enzyme responsible for the intracellular synthesis of cholesteryl esters, was tested as follows. Male Sprague Dawley rats weighing 150-300 g, were fed rat chow ad libitum. The animals were fasted for twenty-four hours prior to being euthanized by CO2. The livers were perfused in situ with 50 ml of cold 0.25 sucrose, excised, and homogenized in three volumes of 0.1M phosphate buffer, pH 7.4, that contained 0.5 mM EDTA (ethylenediamine-tetraacetic acid), 1.0 mM glutathione, 0.25M sucrose and 20 mM leupeptin. Microsomes were obtained by differential centrifugation; the supernatant from an initial spin at 15,000× g for 15 minutes was centrifuged at 105,000× g for 1 hour to pellet the microsomes. The microsomes were suspended in 0.1M phosphate buffer, pH 7.4 with 1 mM GSH and stored at -70° C. Microsomes were used within one month of preparation.
# The control assay in a final volume of 200 μl consisted of 200 μg of microsomal protein, 75 μM ^14 C-oleoyl-CoA (10,000 dpm/nmol) in 0.1M phosphate, pH 7.4, that contained 1 mM glutathione. Compounds were added in 5 μl of DMSO (dimethyl sulfoxide) and additional controls were run with DMSO only. All components, except the oleoyl-CoA, were preincubated for 15 min. at 37° C. prior to the initiation of the reaction by the addition of oleoyl-CoA. The assay was terminated after 10 min by the addition of 4 ml of chloroform:methanol (2:1, v/v). 20,000 dpm of ^3 H-cholesteryl oleate and 10 μg of unlabeled cholesteryl oleate and oleic acid were added as an internal standard and carriers, respectively. After allowing 10 min. for lipid extraction, the samples were centrifuged at 1,000× g for 10 min to separate the solvent layers. The chloroform layer containing the neutral lipids was spotted onto a Baker SI250-Pa silica gel TLC plate and the plate developed using a hexane:diethyl ether:acetic acid (170:30:1) v/v/v) mobile phase. The lipids were visualized by their interaction with iodine vapor and the cholesteryl ester spot was scraped into a scintillation vial and counted. The specific activity of ACAT in the control incubation averaged 260 pmol/min/mg microsomal protein. The data obtained are expressed as the concentration at which ACAT activity is inhibited by 50% (IC50).
row,Compound,IC50 [µM]
1,"CCCCO[C@H]1[C@@H](OC)O[C@H](C(=O)Nc2c(SC)cc(C)nc2SC)C(OCc2ccccc2)[C@@H]1OCCCC (stereo in doubt) [Example 426, (2S,3R,4S,5R,6S)-N-[2,4-bis(methylthio)-6-methylpyridin-3-yl]-3-benzyloxy-4,5-dibutoxy-6-methoxy-3,4,5,6-tetrahydro-2H-pyran-2-carboxamide]",11 to 50
2,CCCCCCC1=C(CCCCCC)CC(C(=O)Nc2c(Cl)cccc2Cl)SC1 (stereo not drawn) [Example 3],3 to 10
3,CC(C)(C)C1C=CCC(C(=O)Nc2ccc(F)cc2F)S1 (stereo not drawn) [Example 17],11 to 50
4,CCCCCC1=C(CCCCC)CC(C(=O)Nc2ccc(F)cc2F)SC1 (stereo not drawn) [Example 30],11 to 50
5,CCCCCC1=C(CCCCC)CC(C(=O)Nc2cncnc2SC)SC1 (stereo not drawn) [Example 32],3 to 10
6,CCCCCC1=C(CCCCC)CC(C(=O)Nc2cccnc2SC)SC1 (stereo not drawn) [Example 33],11 to 50
7,CCCCCC1=C(CCCCC)CC(C(=O)Nc2ccc(SC)nc2)SC1 (stereo not drawn) [Example 34],11 to 50
8,CC1=C(C)CC(C(=O)Nc2c(C(C)C)cccc2C(C)C)SC1 (stereo not drawn) [Example 53],3 to 10
9,CCCCCC1C=CC(CCCCC)C(C(=O)Nc2ccc(F)cc2F)S1 (stereo not drawn) [Example 69],3 to 10
10,"CCCCCC1C=CC(CCCCC)C(C(=O)Nc2c(SC)cc(C)nc2SC)S1 (stereo not drawn) [Example 70, N-[2,4-bis(methylthio)-6-methylpyridin-3-yl]-3,6-dipentyl-2,3-dihydro-2H-thiopyran-2-carboxamide]",< 2
11,CCCCCC1=CC(CCCCC)C(C(=O)Nc2c(C(C)C)cccc2C(C)C)SC1 (stereo not drawn) [Example 79],< 2
12,CC1=C(C)CC(C(=O)Nc2c(C(C)C)cccc2C(C)C)OC1 (stereo not drawn) [Example 104],11 to 50
13,"CSc1cc(C)nc(SC)c1NC(=O)C1CC(C)=C(C)CO1 (stereo not drawn) [Example 106, N-[2,4-bis(methylthio)-6-methyl-3-pyridyl]-2,3-dihydro-4,5-dimethyl-2H-pyran-2-carboxamide]",11 to 50
14,CCCCCC1C=CC(CCCCC)[S+]([O-])C1C(=O)Nc1c(SC)cc(C)nc1SC (stereo not drawn) [Example 120],< 2
15,CSc1cc(C)nc(SC)c1NC(=O)C1SC(c2ccccc2)C=CC1c1ccccc1 (stereo not drawn) [Example 132],< 2
16,CCCC1C=CC(CCC)C(C(=O)Nc2c(SC)cc(C)nc2SC)S1 (stereo not drawn) [Example 140],< 2
17,CSc1cc(C)nc(SC)c1NC(=O)C1SCC=CC1OC(C)=O (stereo not drawn) [Example 168],3 to 10
18,CSc1cc(C)nc(SC)c1NC(=O)C1SC(CCCCl)C=CC1CCCCl (stereo not drawn) [Example 180],< 2
19,CSc1cc(C)nc(SC)c1NC(=O)C1SC(CCCSC2CCCCC2)C=CC1CCCSC1CCCCC1 (stereo not drawn) [Example 184],< 2
20,"CCCCCCSC1CC(=O)CC(C(=O)Nc2c(SC)cc(C)nc2SC)S1 (stereo not drawn) [Example 402, N-[2,4-bis(methylthio)-6-methylpyridin-3-yl]-6-hexylthio-2,3,5,6-tetrahydro-4H-thiopyran-4-one-2-carboxamide]",< 2
21,"CCCCCOc1cc2c(cc1OC)CC(CCCC)CSC2C(=O)Nc1c(SC)cc(C)nc1SC (stereo not drawn) [Example 907, N-[2,4-bis(methylthio)-6-methylpyridin-3-yl]-4-butyl-7-methoxy-8-pentoxy-1,3,4,5-tetrahydro-2-benzothiepin-1-carboxamide]",< 2
22,"N-[2,6-bis(1-methylethyl)phenyl]-6,7-dimethoxy-1,2,3,4-tetrahydro-2-thianaphthalene-1-carboxamide [Example 613]",11 to 50

# The next lines start with the values.
row,IC50 [µM],Compound
1,< 2,CCCCCCC1=C(CCCCCC)CC(C(=O)Nc2c(C(C)C)cccc2C(C)C)SC1 (stereo not drawn) [Example 1]
2,< 2,CCCCCCC1=C(CCCCCC)CC(C(=O)Nc2c(C)cccc2C)SC1 (stereo not drawn) [Example 2]
3,< 2,"CCCCCC1=C(CCCCC)CC(C(=O)Nc2c(C(C)C)cccc2C(C)C)SC1 (stereo not drawn) [Example 27, N-(2,6-diisopropylphenyl)-3,6-dihydro-4,5-dipentyl-2H-thiopyran-2-carboxamide]"
4,< 2,CCCCCC1=C(CCCCC)CC(C(=O)Nc2c(C)cccc2C)SC1 (stereo not drawn) [Example 28]
5,< 2,CCCCCC1=C(CCCCC)CC(C(=O)Nc2c(Cl)cccc2Cl)SC1 (stereo not drawn) [Example 29]
6,< 2,CCCCCC1=C(CCCCC)CC(C(=O)Nc2c(SC)cc(C)nc2SC)SC1 (stereo not drawn) [Example 31]
7,< 2,CCCCCCCCC1=C(CCCCCCCC)CC(C(=O)Nc2c(SC)cc(C)nc2SC)SC1 (stereo not drawn) [Example 35]
8,< 2,CCCCCC1=C(CCCCC)CC(C(=O)Nc2c(C)nn(C)c2SC)SC1 (stereo not drawn) [Example 39]
9,< 2,CCCCC1=C(CCCC)CC(C(=O)Nc2c(C(C)C)cccc2C(C)C)SC1 (stereo not drawn) [Example 40]
10,< 2,CCCCC1=C(CCCC)CC(C(=O)Nc2c(C)cccc2C)SC1 (stereo not drawn) [Example 41]
11,< 2,CCCCC1=C(CCCC)CC(C(=O)Nc2c(Cl)cccc2Cl)SC1 (stereo not drawn) [Example 42]
12,< 2,CSc1cc(C)nc(SC)c1NC(=O)C1CC(C)=C(C)CS1 (stereo not drawn) [Example 57]
13,< 2,"CCCCCC1C=CC(CCCCC)C(C(=O)Nc2c(C(C)C)cccc2C(C)C)S1 (stereo not drawn) [Example 66, N-(2,6-diisopropylphenyl)-3,6-dihydro-3,6-dipentyl-2H-thiopyran-2-carboxamide]"
14,< 2,CCCCCC1C=CC(CCCCC)C(C(=O)Nc2c(C)cccc2C)S1 (stereo not drawn) [Example 67]
15,< 2,CCCCCC1C=CC(CCCCC)C(C(=O)Nc2c(Cl)cccc2Cl)S1 (stereo not drawn) [Example 68]

# Tested on: ACAT
# Assay: Systemic availability of ACAT inhibitors (Ex Vivo Assay): ACAT activity in livers from orally dosed rats
# Parameters: species or system rat (male (CD) Sprague Dawley)
# Conditions: rat, oral gavage 10 mg/kg, days 1-3, livers taken 3 h after last dose; class symbols
# Procedure: B. Assay for the Systemic Availability of ACAT Inhibitors (Ex Vivo Assay)
# The inhibition of ACAT activity in livers obtained from rats orally dosed with an inhibitor was used as a determination of the compound's systemic availability. The ability of ACAT inhibitors to affect cholesterol esterification in livers obtained from dosed animals was tested as follows. This assay is also referred to herein as the Ex Vivo Assay. Male (CD) Sprague Dawley rats weighing from 190-210 g were fed purina lab chow ad libitum. Rats, three per group, were orally gavaged with 10 mg/kg of active ACAT inhibitor. The compounds were dissolved in ethanol (10% of final volume); a PEG solution (80 propylene glycol:20 polyethylene glycol 400, w:w) was added and the compound was mixed completely prior to dosing. A control group received the dosing vehicle alone. The animals were dosed once on Day 1 (am), twice on Day 2 (am and pm) and once on the morning of Day 3. Three hours after the last dose animals were euthanized using CO2. Livers were perfused with a 0.25M sucrose solution, excised, and frozen. Livers were thawed and resuspended in buffer (2 mL/g, 0.1M Phosphate, pH 7.4, 1.0 mM glutathione, 0.5 mM EDTA, 20 μM leupeptin, 60 μM benzamidine, and 0.25M sucrose). The samples were homogenized and post nuclear microsomes were obtained by centrifugation: 1.000× g for 5 min. and the resulting supernatant, 100,000× g for 1 hr. Microsomes were resuspended in phosphate buffer to approximately 25 mg/mL and frozen at -70° C. until assayed for ACAT activity.
# ACAT assays contained in a final volume of 200 μl:100 ug microsomal protein, 75 μM ^14 C-oleoyl-CoA (10,000 dpm/nmol), 0.75 mg bovine serum albumin, 0.1M phosphate buffer, pH 7.4, and 1 mM glutathione. All components, except the oleoyl-CoA, were preincubated for 15 min at 37° C. prior to the initiation of the reaction by the addition of oleoyl-CoA. The assay was terminated after 10 min and ACAT activity determined as described in section A above. The average specific activity of ACAT in the vehicle control group was 661 +/- 64 pmol/min/mg (SEM). The data (% inhibition) are expressed as 100 minus the % ACAT activity in livers from dosed animals versus those from a vehicle control group.
row,Compound,"Inhibition of ACAT, Ex Vivo Assay (% inhibition)"
1,CCCCC1=C(CCCC)CC(C(=O)Nc2c(Cl)cccc2Cl)SC1 (stereo not drawn) [Example 42],+ (10-49%)
2,"CCCCCC1C=CC(CCCCC)C(C(=O)Nc2c(C(C)C)cccc2C(C)C)S1 (stereo not drawn) [Example 66, N-(2,6-diisopropylphenyl)-3,6-dihydro-3,6-dipentyl-2H-thiopyran-2-carboxamide]",++ (>50%)
3,"CCCCCC1C=CC(CCCCC)C(C(=O)Nc2c(SC)cc(C)nc2SC)S1 (stereo not drawn) [Example 70, N-[2,4-bis(methylthio)-6-methylpyridin-3-yl]-3,6-dipentyl-2,3-dihydro-2H-thiopyran-2-carboxamide]",++ (>50%)

# Same assay, conditions: rat, oral gavage 10 mg/kg, days 1-3, livers taken 3 h after last dose; given as number
row,Compound,"Inhibition of ACAT, Ex Vivo Assay (% inhibition) [%]"
1,CCCCCC1=C(CCCCC)CC(C(=O)Nc2c(SC)cc(C)nc2SC)SC1 (stereo not drawn) [Example 31],< 10
2,CCCC1C=CC(CCC)C(C(=O)Nc2c(SC)cc(C)nc2SC)S1 (stereo not drawn) [Example 140],< 10
